Series [1] can be described thus: Cytotoxicity against C57BL/6 mouse BMDM cells incubated for 48 hrs by MTT assay. It is filed as toxicity, cell-based. Conditions: BMDM cells (bone marrow-derived macrophages). (In general: Tetrazolium dyes change colour on reduction, which living cells bring about.)
The target in series [2] is T1, Kelch-like ECH-associated protein 1 (Homo sapiens, UniProt Q14145). As to the kind of experiment: Binding affinity to recombinant human Keap1 assessed as equilibrium dissociation constant by SPR analysis. (Surface plasmon resonance follows binding to a sensor surface in real time, without labels.)
Series [3] has as its system BMDM. As to the kind of experiment: Anti-osteoclastogenesis activity in C57BL/6 mouse BMDM cells assessed as inhibition of RANKL-induced osteoclastogenesis at 10 uM incubated for 7 days in the presence of M-CSF by TRAP-staining based microscopic analysis relative to control. It counts as functional. Conditions: C57BL/6, BMDM, 168 h, time 7 day.
Series [4] deals with T1, Kelch-like ECH-associated protein 1. As to the kind of experiment: Binding affinity to recombinant human Keap1 by SPR analysis.
Series [5] has as its system BMDM. As to the kind of experiment: Anti-osteoclastogenesis activity in C57BL/6 mouse BMDM cells assessed as inhibition of RANKL-induced osteoclastogenesis at 1 uM incubated for 7 days in the presence of M-CSF by TRAP-staining based microscopic analysis relative to control. It is filed as functional. To be noted: C57BL/6, BMDM, 168 h, time 7 day.

Activity calls are given as the source filed them. The calls are words filed in the database; no cut-off is given here.

T1 sequence (Q14145 whole entry): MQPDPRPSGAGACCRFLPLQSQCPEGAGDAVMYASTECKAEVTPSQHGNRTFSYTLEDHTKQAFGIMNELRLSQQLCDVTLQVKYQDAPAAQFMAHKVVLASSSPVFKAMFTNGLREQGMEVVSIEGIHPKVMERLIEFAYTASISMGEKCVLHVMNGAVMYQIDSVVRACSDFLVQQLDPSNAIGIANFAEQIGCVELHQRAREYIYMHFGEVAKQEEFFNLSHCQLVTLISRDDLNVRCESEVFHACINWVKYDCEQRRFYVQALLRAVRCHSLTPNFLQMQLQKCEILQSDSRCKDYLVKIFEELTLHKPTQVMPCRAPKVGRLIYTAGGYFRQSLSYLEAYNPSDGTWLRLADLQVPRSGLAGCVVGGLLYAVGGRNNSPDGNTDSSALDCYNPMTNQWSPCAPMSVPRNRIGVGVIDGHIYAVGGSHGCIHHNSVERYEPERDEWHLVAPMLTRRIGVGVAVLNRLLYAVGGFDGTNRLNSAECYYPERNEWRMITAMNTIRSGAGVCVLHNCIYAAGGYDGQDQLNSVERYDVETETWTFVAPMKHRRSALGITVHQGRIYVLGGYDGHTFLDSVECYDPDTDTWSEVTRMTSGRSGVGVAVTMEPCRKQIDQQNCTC

In series [1], `CC(=O)O[C@H]1/C=C\C(CO)=C/[C@@H]2OC(=O)[C@H](C)[C@@]2(O)[C@@H](OC(C)=O)[C@H]2[C@@](O)(CO)CC[C@H](OC(C)=O)[C@]12C` returned a CC50 at 48 h greater than 50 µM. The Kd in series [2] worked out at 6.6 µM. Besides, in series [3], the inhibition at 10 µM was found to be 32%.

Regarding `CC(=O)O[C@H]1CC[C@](O)(CO)[C@@H]2[C@H](OC(C)=O)[C@@]3(O)[C@H](/C=C(CO)\C=C/[C@H](OC(=O)COC(=O)CC(C)C)[C@@]12C)OC(=O)[C@@H]3C`, the outcome in series [4] was inactive. In addition, the CC50 at 48 h in series [1] is greater than 50 µM. In series [2], the Kd is greater than 100 µM. Moreover, the inhibition at 10 µM in series [3] turned out to be 33.7%.

As for `CCOCC1=C/[C@@H]2OC(=O)[C@H](C)[C@@]2(O)[C@@H](OC(C)=O)[C@H]2[C@@]3(CO3)[C@H](OC(C)=O)C[C@H](OC(=O)CC(C)C)[C@]2(C)[C@@H](OC(C)=O)/C=C\1`, the CC50 at 48 h in series [1] is greater than 50 µM. Moreover, the Kd in series [2] was greater than 100 µM. Moreover, the inhibition at 10 µM in series [3] came to 38.4%.

`CCOCC1=C/[C@@H]2OC(=O)[C@H](C)[C@@]2(O)[C@@H](OC(C)=O)[C@H]2[C@@]3(CO3)[C@H](OC(C)=O)C[C@H](OC(C)=O)[C@]2(C)[C@@H](OC(C)=O)/C=C\1` returned a CC50 at 48 h in series [1] greater than 50 µM. Further, the Kd in series [2] was 6.2 µM. For the same compound, the inhibition at 10 µM in series [3] was 88.3%.

For the compound `CC(=O)O[C@H]1[C@@H](OC(=O)CC(C)C)[C@](O)(CO)[C@@H]2[C@H](OC(C)=O)[C@@]3(O)[C@H](/C=C(CO)\C=C/[C@H](OC(C)=O)[C@@]2(C)[C@H]1OC(C)=O)OC(=O)[C@@H]3C`, in series [4], the result was inactive. Moreover, the CC50 at 48 h in series [1] is greater than 50 µM. Besides, in series [3], the inhibition at 10 µM worked out at 34.8%.

Consider `C=C1[C@H](OC(=O)CC(C)C)C[C@H](OC(C)=O)[C@@]2(C)[C@@H](OC(C)=O)C[C@@H](OC(C)=O)[C@]3(CO3)[C@@H]2[C@H](OC(C)=O)[C@]2(O)[C@@H](C)C(=O)O[C@H]2[C@H]1Cl`, for which the result in series [4] was Active. Besides, the CC50 at 48 h in series [1] was greater than 50 µM. The inhibition at 10 µM in series [3] was 100%.

Turning to `C=C1/C=C\[C@H](OC(C)=O)[C@@]2(C)[C@@H](OC(C)=O)CC[C@]3(CO3)[C@@H]2[C@H](OC(C)=O)[C@]2(O)[C@@H](C)C(=O)O[C@H]2[C@H]1Cl`, the result in series [4] was Active. Further, the CC50 at 48 h in series [1] is greater than 50 µM. Further, the inhibition at 10 µM in series [3] amounted to 97.1%.

In the case of `O=P(O)(O)C(O)(Cn1ccnc1)P(=O)(O)O` [ZOLEDRONIC ACID ANHYDROUS], the inhibition at 1 µM in series [5] came to 87.1%.

Take `C=C1[C@H](Cl)[C@@H]2OC(=O)[C@H](C)[C@]23O[C@]1(O)C[C@H](OC(C)=O)[C@@]1(C)[C@@H](OC(C)=O)C[C@@H](OC(C)=O)[C@]2(CO2)[C@@H]1[C@@H]3OC(C)=O`: the result in series [4] was Active. In series [1], this compound registered a CC50 at 48 h greater than 50 µM. For the same compound, in series [3], the inhibition at 10 µM turned out to be 29.3%.

With `C=C1[C@H]2O[C@]3([C@@H](C)C(=O)O[C@H]3[C@H]1Cl)[C@@H](OC(C)=O)[C@H]1[C@@](O)(CCl)CC[C@H](OC(C)=O)[C@]1(C)[C@@H](OC(C)=O)[C@@H]2OC(C)=O`, the outcome in series [4] was Active. Besides, the CC50 at 48 h in series [1] was greater than 50 µM. For the same compound, in series [3], the inhibition at 10 µM stood at 98.8%.

For the compound `C=C1[C@H]2O[C@]3([C@@H](C)C(=O)O[C@H]3[C@H]1Cl)[C@@H](OC(C)=O)[C@H]1[C@@]3(CO3)[C@H](OC(C)=O)C[C@H](OC(C)=O)[C@]1(C)[C@@H](OC(C)=O)[C@@H]2OC(C)=O`, the result in series [4] was Active. For the same compound, the CC50 at 48 h in series [1] was greater than 50 µM. Also, in series [3], the inhibition at 10 µM worked out at 37.1%.

For the compound `CC(=O)O[C@H]1/C=C\C(CO)=C/[C@@H]2OC(=O)[C@H](C)[C@@]2(O)[C@@H](OC(C)=O)[C@H]2[C@@](O)(CO)[C@H](O)[C@H](OC(=O)CC(C)C)[C@H](OC(C)=O)[C@]12C`, the result in series [4] was inactive. In series [1], this compound had a CC50 at 48 h greater than 50 µM. In series [3], the inhibition at 10 µM stood at 62.8%.

As a reminder, the CC50 is the concentration at which the toxic effect on the cells reaches its halfway point. A higher CC50 goes with lower toxicity to the cells. A word on the Kd: it is a measure of binding affinity in units of concentration. In general, inhibition refers to how much of the control response was suppressed.
